Values of other authors in patent publication US20140275257A1, “N-ACETYL CYSTEINE COMPOSITIONS IN THE TREATMENT OF SYSTEMIC LUPUS ERYTHEMATOSUS” (Foundation for the State University of New York, priority 2013, published 2014).

How the values were obtained:
[1] = system: MRL/lpr lupus mouse model; conditions: cited from earlier work
[2] = system: human SLE patients; conditions: patients resistant or intolerant to conventional medications; Fernandez et al. (2006); cited from earlier work
[3] = system: CD4+/CD25+/FoxP3+ T cells; conditions: Lai et al. (2010); cited from earlier work
[4] = effects counter to those reported for NAC; Samstrand et al (1999); cited from earlier work

| Structure (SMILES) | survival of lupusprone MRL/lpr lupus mouse model ([1]; Warner et al. (1994)) | disease activity in murine lupus ([1]; blockade of mTOR) | disease activity in human SLE patients [2] | CD4+/CD25+/FoxP3+ T cells in patients with SLE [3] | bioactive at doses less than NAC [4] |
| --- | --- | --- | --- | --- | --- |
| CO[C@H]1C[C@@H]2CC[C@@H](C)[C@@](O)(O2)C(=O)C(=O)N2CCCC[C@H]2C(=O)O[C@H]([C@H](C)C[C@@H]2CC[C@@H](O)[C@H](OC)C2)CC(=O)[C@H](C)/C=C(\C)[C@@H](O)[C@@H](OC)C(=O)[C@H](C)C[C@H](C)/C=C/C=C/C=C/1C [rapamycin] | prolonged survival | improves disease activity | improves disease activity | expanded |  |
| CC(=O)N[C@@H](CSSC[C@H](NC(C)=O)C(=O)O)C(=O)O [oxidized form of NAC] |  |  |  |  | 10-100 fold |
